The results in this text go back to PMC8880564, “Design, Synthesis, and Biological Evaluation of a Novel VEGFR-2 Inhibitor Based on a 1,2,5-Oxadiazole-2-Oxide Scaffold with MAPK Signaling Pathway Inhibition” (Pharmaceuticals, 2022).

Holding throughout (type): cell-based
For one assay, the system named is HOP-62. The experiment in a line: NCI-60 one-dose SRB screening. As to conditions: Homo sapiens, HOP-62, Non-Small Cell Lung Cancer, 10 µM one dose, 48 h, read-out: growth percentage.
Another assay relates to HCT-116. Description: NCI-60 one-dose SRB screening. To be noted: Homo sapiens, HCT-116, Colon Cancer, 10 µM one dose, 48 h, read-out: growth percentage.
A further assay deals with SW-620. The experiment in a line: NCI-60 one-dose SRB screening. To be noted: Homo sapiens, SW-620, Colon Cancer, 10 µM one dose, 48 h, read-out: growth percentage.
The subject of a further assay is RPMI-8226. Description: NCI-60 one-dose SRB screening. As to conditions: Homo sapiens, RPMI-8226, Leukemia, 10 µM one dose, 48 h, read-out: growth percentage.
In a further assay the test system is SF-295. The experiment in a line: NCI-60 one-dose SRB screening. As to conditions: Homo sapiens, SF-295, CNS Cancer, 10 µM one dose, 48 h, read-out: growth percentage.
The test system of a further assay is DU-145. Description: NCI-60 one-dose SRB screening. To be noted: Homo sapiens, DU-145, Prostate Cancer, 10 µM one dose, 48 h, read-out: growth percentage.
The subject of another assay is CCRF-CEM. Description: NCI-60 one-dose SRB screening. As to conditions: Homo sapiens, Leukemia, 10 µM one dose, 48 h, read-out: growth percentage.
Another assay deals with NCI-H322M. The experiment in a line: NCI-60 one-dose SRB screening. To be noted: Homo sapiens, Non-Small Cell Lung Cancer, 10 µM one dose, 48 h, read-out: growth percentage.
A further assay deals with MALME-3M. Description: NCI-60 one-dose SRB screening. To be noted: Homo sapiens, Melanoma, 10 µM one dose, 48 h, read-out: growth percentage.
The subject of the next assay is HS 578T. Description: NCI-60 one-dose SRB screening. As to conditions: Homo sapiens, Breast Cancer, 10 µM one dose, 48 h, read-out: growth percentage.
For a further assay, the system named is SK-OV-3. The experiment in a line: NCI-60 one-dose SRB screening. As to conditions: Homo sapiens, SK-OV-3, Ovarian Cancer, 10 µM one dose, 48 h, read-out: growth percentage.
The test system of the next assay is MDA-MB-435. Description: NCI-60 one-dose SRB screening. As to conditions: Homo sapiens, MDA-MB-435, Melanoma, 10 µM one dose, 48 h, read-out: growth percentage.
The test system of another assay is A549/ATCC. The experiment in a line: NCI-60 one-dose SRB screening. To be noted: Homo sapiens, Non-Small Cell Lung Cancer, 10 µM one dose, 48 h, read-out: growth percentage.
The next assay relates to HCC-2998. Description: NCI-60 one-dose SRB screening. As to conditions: Homo sapiens, HCC-2998, Colon Cancer, 10 µM one dose, 48 h, read-out: growth percentage.
Another assay has as its system MDA-MB-231/ATCC. Description: NCI-60 one-dose SRB screening. As to conditions: Homo sapiens, Breast Cancer, 10 µM one dose, 48 h, read-out: growth percentage.
Assay [1] deals with NCI-59 human cancer cell lines. Description: NCI-60 one-dose SRB screening, full panel and subpanels. As to conditions: for activity at 10 µM: mean over the full panel, 10 µM one dose, 48 h, SRB, read-out: growth percentage, Mean. The protocol:
The structures of the synthesized compounds 6a–h, 12a–c, 11, 13a–c, and 14a–c were submitted to the National Cancer Institute’s Developmental Therapeutics Program (NCI-DTP), and all of them were selected for preliminary in vitro anticancer activity screening against NCI-59 human cancer cell lines at a concentration of 10 µM, using the sulforhodamine B (SRB) assay to determine the growth percentage and cell viability.
The in vitro NCI-60 cell line screening assay was conducted at the National Cancer Institute (NCI), Bethesda, USA against 59 cancer cell lines representing 9 types of cancers, as reported earlier. Briefly, the human cancer cell lines were grown in RPMI 1640 medium containing 5% fetal bovine serum and 2 mM L-glutamine and inoculated into 96-well microtiter plates in 100 μL (5000 to 40,000 cells/well). Then, the plates were incubated at 37 °C, 5% CO2, 95% air, and 100% relative humidity for 24 h. After that, two plates of each cell line were fixed in situ with TCA, to represent cell population at time zero (Tz). The tested compounds were dissolved in DMSO at 400-fold and added so that the final concentration became 10 μM. The plates were then incubated for an additional 48 h followed by the addition of cold TCA to terminate the assay in case of adherent cells. Then, the cells were fixed in situ by cold 50% (w/v) TCA (50 μL; final concentration, 10% TCA) and incubated for 1 h at 4 °C. After discarding the supernatant, the plates were washed 5 times with tap water and air dried. Sulforhodamine B (SRB) solution (100 μL) at 0.4% (w/v) in 1% HOAc was added to each well, and plates were incubated for 10 min. at rt. Then, washing with 1% acetic acid was conducted 5 times to remove the unbound dye followed by air drying. After that, 10 mM trizma base was added to solubilize the bound stain, and the absorbance was read on an automated plate reader at a wavelength of 515 nm. On the other hand, the methodology for suspension cells was the same except that 50 μL of 80% TCA (final concentration, 16% TCA) was gently added to terminate the assay by fixing settled cells at the bottom of the wells. Percentage growth inhibition (GI%) was calculated as follows:
Growth percentage=Ti (test growth in the presence of compound at 10 µM )−Tz (time zero)/C (control growth)−Tz (time zero)×100 for Ti ≥ Tz;
Growth percentage=Ti (test growth in the presence of compound at 10 µM )−Tz (time zero)/Tz (time zero)×100 for Ti < Tz.
where values of 100, 40, 0, −40, and −100 mean no GI, 60% GI, no net G, 40% lethality, and all cells are dead, respectively.
Data are expressed as a one-dose mean graph of growth percentages including the mean, delta, and range.

For `[O-][n+]1onc(-c2ccccc2)c1COc1ccc(Nc2ncnc3c2cnn3-c2ccccc2)cc1` [6a, 4-phenyl-3-((4-((1-phenyl-1H-pyrazolo[3,4-d]pyrimidin-4-yl)amino)phenoxy)methyl)-1,2,5-oxadiazole 2-oxide], the activity at 10 µM in the assay with HOP-62 came out at 107%; in the assay on HCT-116, 93%; with SW-620 it was 106%; in the assay on RPMI-8226, 104%; with SF-295, 98.4%; with DU-145 it was 107%. Moreover, the activity at 10 µM in the assay with CCRF-CEM amounted to 91%; with NCI-H322M, 109%; in the assay with MALME-3M, 90%; in the assay on HS 578T it was 98.7%; in the assay with SK-OV-3 it was 102%; in the assay with MDA-MB-435, 114%. Besides, the activity at 10 µM is 96% with A549/ATCC, 106% in the assay on HCC-2998, 97.5% in the assay on MDA-MB-231/ATCC and 100% in assay [1] (Homo sapiens). Moreover, in [1] (full NCI-59 panel, 10 µM), the “mean growth inhibition % (MGI%, GI%)” value is “no mean growth inhibition percentage”.
Take `Cc1nc(Nc2ccc(OCc3c(-c4ccccc4)no[n+]3[O-])cc2)c2cnn(-c3ccccc3)c2n1` [6b, 3-((4-((6-methyl-1-phenyl-1H-pyrazolo[3,4-d]pyrimidin-4-yl)amino)phenoxy)methyl)-4-phenyl-1,2,5-oxadiazole 2-oxide]: the activity at 10 µM in the assay with HOP-62 came to 103%; with HCT-116 it was 99.2%; in the assay on SW-620 it was 120%; in the assay with RPMI-8226, 114%; with SF-295, 97.1%; with DU-145, 105%. In addition, the activity at 10 µM stood at 102% in the assay on CCRF-CEM; 99.5% in the assay with NCI-H322M; 99.3% in the assay on MALME-3M; 110% in the assay with HS 578T; 110% in the assay with SK-OV-3; 99.7% in the assay on MDA-MB-435. The activity at 10 µM in the assay with A549/ATCC came out at 101%; in the assay on HCC-2998 it was 108%; in the assay on MDA-MB-231/ATCC, 106%; in assay [1] (Homo sapiens) it was 102%. Besides, the “enhancement of the growth percentage (mean)” value in [1] (full NCI-59 panel, 10 µM) was 1–5%.
For the molecule `Cc1nn(-c2ccccc2)c2ncnc(Nc3ccc(OCc4c(-c5ccccc5)no[n+]4[O-])cc3)c12` [6c, 3-((4-((3-methyl-1-phenyl-1H-pyrazolo[3,4-d]pyrimidin-4-yl)amino)phenoxy)methyl)-4-phenyl-1,2,5-oxadiazole 2-oxide], the activity at 10 µM in the assay with HOP-62 was 105%; in the assay on HCT-116 it was 81.8%; in the assay with SW-620 it was 107%; with RPMI-8226, 94%; in the assay with SF-295, 99%; in the assay on DU-145, 106%. Further, the activity at 10 µM is 97.4% in the assay on CCRF-CEM; 91% in the assay with NCI-H322M; 98.2% in the assay on MALME-3M; 97.5% with HS 578T; 104% with SK-OV-3; 93.4% in the assay on MDA-MB-435. For the same molecule, the activity at 10 µM is 99.3% in the assay on A549/ATCC, 106% in the assay on HCC-2998, 95.7% in the assay with MDA-MB-231/ATCC and 96.2% in assay [1] (Homo sapiens). The inhibition (in general, how much of the control response was suppressed) at 10 µM in assay [1] (Homo sapiens, full NCI-59 panel, 10 µM, read-out: mean growth inhibition % (MGI%, GI%)) lay in the range of 1.58 to 4.57%.
Regarding `Cc1nc(Nc2ccc(OCc3c(-c4ccccc4)no[n+]3[O-])cc2)c2c(C)nn(-c3ccccc3)c2n1` [6d, 3-((4-((3,6-dimethyl-1-phenyl-1H-pyrazolo[3,4-d]pyrimidin-4-yl)amino)phenoxy)methyl)-4-phenyl-1,2,5-oxadiazole 2-oxide], the activity at 10 µM amounted to 107% in the assay with HOP-62; 104% in the assay with HCT-116; 119% with SW-620; 106% in the assay with RPMI-8226; 108% in the assay on SF-295; 112% in the assay with DU-145. The activity at 10 µM came out at 113% with CCRF-CEM; 99.9% with NCI-H322M; 101% in the assay with MALME-3M; 102% in the assay with HS 578T; 109% in the assay with SK-OV-3; 105% in the assay on MDA-MB-435. Further, the activity at 10 µM came out at 103% in the assay on A549/ATCC, 107% in the assay with HCC-2998, 101% in the assay with MDA-MB-231/ATCC and 105% in assay [1] (Homo sapiens). Besides, the “enhancement of the growth percentage (mean)” value in assay [1] (full NCI-59 panel, 10 µM) was 1–5%.
For the molecule `[O-][n+]1onc(-c2ccccc2)c1COc1ccc(Nc2ncnc3c2cnn3-c2ccc(Br)cc2)cc1` [6e, 3-((4-((1-(4-bromophenyl)-1H-pyrazolo[3,4-d]pyrimidin-4-yl)amino)phenoxy)methyl)-4-phenyl-1,2,5-oxadiazole 2-oxide], the activity at 10 µM in the assay on HOP-62 was found to be 105%; with HCT-116 it was 92.7%; with SW-620, 115%; in the assay on RPMI-8226, 111%; with SF-295 it was 101%; in the assay on DU-145, 107%. The activity at 10 µM in the assay on CCRF-CEM is 108%; in the assay with NCI-H322M, 97.9%; with MALME-3M it was 95.3%; in the assay with HS 578T, 110%; in the assay with SK-OV-3, 104%; with MDA-MB-435, 94.5%. Also, the activity at 10 µM with A549/ATCC was 93.5%; with HCC-2998 it was 106%; in the assay with MDA-MB-231/ATCC, 108%; in assay [1] (Homo sapiens), 101%. Besides, in assay [1] (full NCI-59 panel, 10 µM), the “enhancement of the growth percentage (mean)” value is recorded as 1–5%.
For `Cc1nn(-c2ccccc2)c2nc(CCl)[nH]c(=O)c12` [13b], the activity at 10 µM in the assay with HOP-62 stood at 98.3%; with HCT-116 it was 24.9%; with SW-620, 85.1%; with SF-295 it was 109%; in the assay with DU-145 it was 83.6%; in the assay on NCI-H322M, 103%. In addition, the activity at 10 µM with MALME-3M was determined as 2.09%; in the assay with HS 578T, 120%; with SK-OV-3, 105%; with MDA-MB-435, 99%; in the assay with A549/ATCC it was 97.7%; with HCC-2998 it was 108%. The activity at 10 µM with MDA-MB-231/ATCC is 88.4%; in assay [1] (Homo sapiens), 82.8%.
